In brackets after ≈: the same amount, converted by molar mass. Several values for one entry are separate records, joined by “and”; a condition that tells them apart may be missing. Equal entries are not always repeated. Structures can show the parent of a compound that is named as a salt.
Columns and labels:
Assay in all cases: microbe, parasite or virus in culture
Assay type in all cases: cell-based
[1] = system: Respiratory Syncytial Virus (RSV) strain A2; conditions: for LRV (log reduction value): average reduction of virus vs average virus control; for antiviral activity against RSV (in words): summary of Table 2
[2] = system: Influenza A/CA/07/09 (H1N1); conditions: for LRV (log reduction value): average reduction of virus vs average virus control
[3] = system: SARS-CoV-2 strain USA/PHC658/2021 (B.1.617.2; delta); conditions: for LRV (log reduction value): average reduction of virus vs average virus control

## CN(C)CCC(c1ccc(Cl)cc1)c1ccccn1 (centres unmarked) [Chlorpheniramine Maleate, reference compound]
[1]; concentration 1 %
  Log10 CCID50 virus per 0.2 mL: 1.50
[1]; concentration 1 %, day 5
  LRV (log reduction value): 2.99
[2]; concentration 1 %, day 3
  LRV (log reduction value): 6.02
[3]; concentration 1 %
  Log10 CCID50 virus per 0.2 mL: 2.30 and 2.50
[3]; concentration 1 %, day 6
  LRV (log reduction value): 2.69

## OC[C@@H](O)[C@@H](O)CO [Erythritol]
[1]; concentration 5 %, day 5
  LRV (log reduction value): 1.84
[2]; concentration 5 %, day 3
  LRV (log reduction value): 3.17
[2]; summary of Table 1
  antiviral activity against H1N1 (in words): showed antiviral activity
[3]; concentration 5 %, day 6
  LRV (log reduction value): 3.29

## CCC(CC)COC(=O)[C@H](C)N[P@](=O)(OC[C@H]1O[C@@](C#N)(c2ccc3c(N)ncnn23)[C@H](O)[C@@H]1O)Oc1ccccc1 [Remdesivir]
[3]; Severe acute respiratory syndrome coronavirus 2, 144 h
  EC90: 0.12 mg/L (≈ 0.199 µM)
[3]; concentration 5 μg/ml
  Log10 CCID50 virus per 0.2 mL: 0.67
[3]; with the EC90, day 6
  SI: SI >42

## NC(=O)c1ncn([C@@H]2O[C@H](CO)[C@@H](O)[C@H]2O)n1 [Ribavirin, reference compound]
[1]; concentration 100 μg/ml
  Log10 CCID50 virus per 0.2 mL: 1.30
[1]; human respiratory syncytial virus, 120 h, 90% effective concentration (reduce virus yield by 1 log10), regression analysis, day 5
  EC90: 4.6 mg/L (≈ 18.8 µM)
[1]; with the EC90, day 5
  SI: SI >22
[2]; Influenza A virus, H1N1, 72 h
  EC90: 3.1 mg/L (≈ 12.7 µM)
[2]; concentration 100 μg/ml
  Log10 CCID50 virus per 0.2 mL: 0.67
[2]; with the EC90, day 3
  SI: SI >32

## OC[C@@H](O)[C@@H](O)[C@H](O)[C@@H](O)CO [Sorbitol]
[1]; concentration 5 %
  Log10 CCID50 virus per 0.2 mL: 2.00
[1]; concentration 5 %, day 5
  LRV (log reduction value): 2.49
[1]
  antiviral activity against RSV (in words): antiviral activity
[2]; concentration 5 %, day 3
  LRV (log reduction value): 1.47
[3]; concentration 5 %
  Log10 CCID50 virus per 0.2 mL: 1.50 and 1.67
[3]; concentration 5 %, day 6
  LRV (log reduction value): 3.5

## OC[C@@H](O)[C@H](O)[C@@H](O)CO [Xylitol]
[1]; concentration 5 %, day 5
  LRV (log reduction value): 2.65
[1]
  antiviral activity against RSV (in words): antiviral activity
[2]; concentration 5 %
  Log10 CCID50 virus per 0.2 mL: 6.00
[2]; concentration 5 %, day 3
  LRV (log reduction value): 1.27
[3]; concentration 5 %, day 6
  LRV (log reduction value): 3.84

— US20240000878A1 (priority 2022, published 2024)
